PMC12655758, “Identification of KKL-35 as a Novel Carnosine Dipeptidase 2 (CNDP2) Inhibitor by In Silico Screening” (Molecules, 2025)
Read-outs that look alike come from different tables or passages of the source.

What was measured:
Assay type in all cases: biochemical
[1] = molecular target: T1, Carnosine dipeptidase 2 (CNDP2) (Mus musculus, UniProt Q9D1A2); assay: LC-MS detection of Cys-NEM and Gly products from Cys-Gly ([…]) hydrolysed by purified CNDP2
T1 sequence (Q9D1A2 1-475): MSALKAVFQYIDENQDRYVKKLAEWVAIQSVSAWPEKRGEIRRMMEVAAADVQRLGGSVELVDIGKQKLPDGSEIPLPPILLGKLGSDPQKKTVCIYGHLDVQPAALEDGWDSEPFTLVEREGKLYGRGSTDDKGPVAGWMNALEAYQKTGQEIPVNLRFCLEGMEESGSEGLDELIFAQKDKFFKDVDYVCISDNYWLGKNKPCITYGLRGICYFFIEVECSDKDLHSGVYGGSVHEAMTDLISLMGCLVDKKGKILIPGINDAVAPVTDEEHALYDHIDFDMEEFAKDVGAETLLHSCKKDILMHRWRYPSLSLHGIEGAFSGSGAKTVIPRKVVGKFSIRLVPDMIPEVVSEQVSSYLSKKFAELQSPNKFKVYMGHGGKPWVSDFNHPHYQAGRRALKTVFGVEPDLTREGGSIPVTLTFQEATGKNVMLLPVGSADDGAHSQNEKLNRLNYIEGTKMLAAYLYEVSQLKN

[2] = molecular target: T1, Carnosine dipeptidase 2 (CNDP2); assay: LC-MS assay of Cys-Gly hydrolysis by purified CNDP2 (Cys-NEM readout; IC50 […] by Gly)
[3] = molecular target: T1, Carnosine dipeptidase 2 (CNDP2); assay: as above; remark: listed apart in the source

## N[C@@H](CS)C(=O)NCC(=O)O [Cys-Gly]
[1]
  LC-MS detection of Cys-NEM and Gly products from Cys-Gly (5 mM) hydrolysed by pu: Cys-Gly was hydrolyzed by CNDP2 to produce cysteine (Cys) and glycine (Gly).

## O=C(Nc1nnc(-c2ccc(F)cc2)o1)c1ccc(Cl)cc1 [KKL-35]
[2]
  IC50: 118 µM

## CC(C)C[C@H](NC(=O)[C@@H](O)[C@H](N)Cc1ccccc1)C(=O)O [Bestatin]
[3]
  IC50: 1 µM
